Results published in ChEMBL document CHEMBL5291721, “A preclinical secondary pharmacology resource illuminates target-adverse drug reaction associations of marketed drugs” (Nat Commun, 2023).
Where a SMILES comes first, the peptide text is derived from it. [ ]: non-standard residue; d: D form. pGlu = O=C1CC[C@@H](C(=O)O)N1; Thz = O=C(O)[C@@H]1CSCN1

Tests used:
[1] = target: Histamine H1 receptor (Homo sapiens, UniProt P35367)
[2] = target: T1, Mu-type opioid receptor (Homo sapiens, UniProt P35372); assay: biochemical; format: functional
[3] = target: T2, Muscarinic acetylcholine receptor M1 (Homo sapiens, UniProt P11229); format: functional
T2 sequence (P11229 whole entry): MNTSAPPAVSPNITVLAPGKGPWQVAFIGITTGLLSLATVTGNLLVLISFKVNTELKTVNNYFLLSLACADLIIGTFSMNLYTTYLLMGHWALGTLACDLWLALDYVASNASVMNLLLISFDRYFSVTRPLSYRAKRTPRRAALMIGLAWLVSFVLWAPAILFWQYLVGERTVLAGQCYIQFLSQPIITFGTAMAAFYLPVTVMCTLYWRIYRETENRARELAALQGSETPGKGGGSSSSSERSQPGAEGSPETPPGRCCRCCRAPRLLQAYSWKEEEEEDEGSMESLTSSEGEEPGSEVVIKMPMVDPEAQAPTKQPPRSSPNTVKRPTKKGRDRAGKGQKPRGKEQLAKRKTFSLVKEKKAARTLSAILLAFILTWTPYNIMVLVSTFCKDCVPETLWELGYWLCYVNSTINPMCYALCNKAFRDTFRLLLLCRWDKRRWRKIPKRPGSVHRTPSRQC

[4] = target: T3, Cannabinoid receptor 1 (Homo sapiens, UniProt P21554); format: functional, cell-based
[5] = target: T4, Alpha-2B adrenergic receptor (Homo sapiens, UniProt P18089)
T4 sequence (P18089 whole entry): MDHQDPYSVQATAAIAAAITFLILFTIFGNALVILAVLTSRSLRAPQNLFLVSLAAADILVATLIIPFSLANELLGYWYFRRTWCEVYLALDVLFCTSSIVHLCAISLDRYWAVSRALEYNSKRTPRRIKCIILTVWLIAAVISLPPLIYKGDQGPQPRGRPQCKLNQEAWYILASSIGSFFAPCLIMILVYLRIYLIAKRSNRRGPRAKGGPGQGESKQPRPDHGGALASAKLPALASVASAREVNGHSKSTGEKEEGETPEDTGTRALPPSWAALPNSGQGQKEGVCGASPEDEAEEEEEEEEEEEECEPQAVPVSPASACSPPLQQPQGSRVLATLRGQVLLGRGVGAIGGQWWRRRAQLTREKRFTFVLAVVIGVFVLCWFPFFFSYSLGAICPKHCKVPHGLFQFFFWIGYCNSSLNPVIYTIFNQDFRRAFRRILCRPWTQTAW

[6] = target: T5, 5-hydroxytryptamine receptor 2A (Homo sapiens, UniProt P28223); format: functional, cell-based
[7] = target: T5, 5-hydroxytryptamine receptor 2A; format: functional, cell-based; remark: listed apart in the source
[8] = target: T3, Cannabinoid receptor 1; format: functional, cell-based; remark: listed apart in the source
[9] = target: T3, Cannabinoid receptor 1
[10] = target: T1, Mu-type opioid receptor
[11] = target: Melanocortin receptor 4 (Homo sapiens, UniProt P32245)
[12] = target: T6, Alpha-1A adrenergic receptor (Homo sapiens, UniProt P35348)
T6 sequence (P35348 whole entry): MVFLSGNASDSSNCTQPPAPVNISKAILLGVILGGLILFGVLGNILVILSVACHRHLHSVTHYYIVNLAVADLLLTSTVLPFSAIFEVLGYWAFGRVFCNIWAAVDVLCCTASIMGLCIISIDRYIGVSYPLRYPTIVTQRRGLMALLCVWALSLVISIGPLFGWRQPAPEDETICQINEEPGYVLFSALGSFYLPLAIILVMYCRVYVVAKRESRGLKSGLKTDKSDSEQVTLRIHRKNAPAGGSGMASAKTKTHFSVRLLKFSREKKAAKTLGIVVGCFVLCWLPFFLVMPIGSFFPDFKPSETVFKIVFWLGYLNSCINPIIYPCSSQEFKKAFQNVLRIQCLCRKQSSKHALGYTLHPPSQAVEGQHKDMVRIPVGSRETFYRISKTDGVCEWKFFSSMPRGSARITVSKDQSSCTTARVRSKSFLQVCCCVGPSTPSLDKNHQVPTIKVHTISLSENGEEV

[13] = target: T7, 5-hydroxytryptamine receptor 1A (Homo sapiens, UniProt P08908); format: functional, cell-based
T7 sequence (P08908 whole entry): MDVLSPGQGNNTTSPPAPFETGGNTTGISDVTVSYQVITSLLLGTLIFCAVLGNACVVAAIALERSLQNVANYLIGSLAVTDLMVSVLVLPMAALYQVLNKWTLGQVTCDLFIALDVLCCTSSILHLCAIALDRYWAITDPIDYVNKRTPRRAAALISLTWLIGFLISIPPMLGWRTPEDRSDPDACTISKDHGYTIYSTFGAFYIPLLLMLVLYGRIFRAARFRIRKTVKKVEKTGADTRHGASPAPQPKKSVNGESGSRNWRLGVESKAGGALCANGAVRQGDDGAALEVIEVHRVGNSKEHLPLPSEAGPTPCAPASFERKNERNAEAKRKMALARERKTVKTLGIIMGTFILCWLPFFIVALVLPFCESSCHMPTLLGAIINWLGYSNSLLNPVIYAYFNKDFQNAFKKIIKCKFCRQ

[14] = target: Beta-2 adrenergic receptor (Homo sapiens, UniProt P07550); format: functional, cell-based
Further: assay procedure not described here.

Histamine H1 receptor, sequence (P35367 whole entry): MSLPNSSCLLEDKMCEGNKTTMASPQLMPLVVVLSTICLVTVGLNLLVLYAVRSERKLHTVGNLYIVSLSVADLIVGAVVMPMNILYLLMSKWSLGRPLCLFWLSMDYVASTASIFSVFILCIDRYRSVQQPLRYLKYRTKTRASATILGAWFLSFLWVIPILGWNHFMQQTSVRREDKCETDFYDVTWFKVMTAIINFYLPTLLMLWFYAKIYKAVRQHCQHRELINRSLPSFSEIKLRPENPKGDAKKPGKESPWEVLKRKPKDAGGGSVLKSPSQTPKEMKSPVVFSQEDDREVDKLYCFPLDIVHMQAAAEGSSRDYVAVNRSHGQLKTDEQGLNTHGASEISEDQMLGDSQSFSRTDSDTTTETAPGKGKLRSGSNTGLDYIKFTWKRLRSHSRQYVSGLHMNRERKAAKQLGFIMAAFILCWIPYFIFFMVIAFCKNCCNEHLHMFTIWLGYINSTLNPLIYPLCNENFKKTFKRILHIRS
Melanocortin receptor 4, sequence (P32245 whole entry): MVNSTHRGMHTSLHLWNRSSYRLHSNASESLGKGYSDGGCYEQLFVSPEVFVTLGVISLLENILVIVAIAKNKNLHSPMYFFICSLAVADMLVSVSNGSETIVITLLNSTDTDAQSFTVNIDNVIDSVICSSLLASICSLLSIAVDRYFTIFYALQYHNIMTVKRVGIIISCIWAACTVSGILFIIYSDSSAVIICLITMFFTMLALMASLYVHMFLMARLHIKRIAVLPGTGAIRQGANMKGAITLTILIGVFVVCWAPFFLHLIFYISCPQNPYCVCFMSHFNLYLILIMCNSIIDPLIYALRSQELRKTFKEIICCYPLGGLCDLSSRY
T3 sequence (P21554 whole entry): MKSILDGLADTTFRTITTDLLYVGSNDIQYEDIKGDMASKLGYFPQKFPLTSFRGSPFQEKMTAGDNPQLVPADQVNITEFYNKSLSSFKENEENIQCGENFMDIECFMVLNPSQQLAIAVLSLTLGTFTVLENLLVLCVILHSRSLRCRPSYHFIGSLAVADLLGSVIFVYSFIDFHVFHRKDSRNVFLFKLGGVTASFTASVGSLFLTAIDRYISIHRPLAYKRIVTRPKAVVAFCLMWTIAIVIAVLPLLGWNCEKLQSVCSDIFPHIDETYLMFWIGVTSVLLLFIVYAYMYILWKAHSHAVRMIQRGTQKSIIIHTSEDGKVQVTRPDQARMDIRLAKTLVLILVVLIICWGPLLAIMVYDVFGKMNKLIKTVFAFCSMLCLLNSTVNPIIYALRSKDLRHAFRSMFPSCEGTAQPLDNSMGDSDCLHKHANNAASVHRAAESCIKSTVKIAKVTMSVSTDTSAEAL
T5 sequence (P28223 whole entry): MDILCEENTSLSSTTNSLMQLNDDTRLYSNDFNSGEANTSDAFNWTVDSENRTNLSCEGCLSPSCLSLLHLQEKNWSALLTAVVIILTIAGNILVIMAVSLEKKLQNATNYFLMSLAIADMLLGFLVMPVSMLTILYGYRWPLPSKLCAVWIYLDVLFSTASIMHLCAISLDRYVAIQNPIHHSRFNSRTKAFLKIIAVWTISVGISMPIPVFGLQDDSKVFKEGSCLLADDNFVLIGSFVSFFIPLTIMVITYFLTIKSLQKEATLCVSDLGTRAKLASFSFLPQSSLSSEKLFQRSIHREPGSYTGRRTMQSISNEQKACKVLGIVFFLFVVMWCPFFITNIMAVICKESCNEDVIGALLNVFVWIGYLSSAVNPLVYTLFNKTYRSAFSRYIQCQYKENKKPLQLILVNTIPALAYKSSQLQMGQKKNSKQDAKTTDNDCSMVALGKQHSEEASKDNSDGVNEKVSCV
T1 sequence (P35372 whole entry): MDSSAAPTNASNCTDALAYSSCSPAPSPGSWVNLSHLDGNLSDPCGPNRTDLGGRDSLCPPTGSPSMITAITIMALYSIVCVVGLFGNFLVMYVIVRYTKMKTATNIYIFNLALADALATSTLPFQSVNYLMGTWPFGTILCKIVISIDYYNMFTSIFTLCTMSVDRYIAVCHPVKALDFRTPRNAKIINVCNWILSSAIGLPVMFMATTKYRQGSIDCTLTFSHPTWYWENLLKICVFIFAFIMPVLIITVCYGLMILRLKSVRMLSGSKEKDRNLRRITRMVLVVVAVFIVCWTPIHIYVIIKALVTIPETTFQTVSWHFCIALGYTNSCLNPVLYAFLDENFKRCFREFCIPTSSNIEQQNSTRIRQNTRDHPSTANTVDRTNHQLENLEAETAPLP
Beta-2 adrenergic receptor, sequence (P07550 whole entry): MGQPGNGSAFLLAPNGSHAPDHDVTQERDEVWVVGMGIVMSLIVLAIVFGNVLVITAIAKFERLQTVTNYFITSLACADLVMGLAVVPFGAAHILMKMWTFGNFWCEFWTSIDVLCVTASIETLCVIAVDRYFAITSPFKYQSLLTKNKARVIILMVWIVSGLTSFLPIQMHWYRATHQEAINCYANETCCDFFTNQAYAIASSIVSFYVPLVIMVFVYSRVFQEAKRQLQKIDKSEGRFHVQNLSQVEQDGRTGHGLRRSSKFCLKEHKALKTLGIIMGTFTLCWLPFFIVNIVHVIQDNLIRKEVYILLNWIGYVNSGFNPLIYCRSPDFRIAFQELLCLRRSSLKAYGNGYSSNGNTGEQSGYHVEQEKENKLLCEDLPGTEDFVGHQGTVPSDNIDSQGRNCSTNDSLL

| Compound | AC50 [1] [µM] | AC50 [2] [µM] | AC50 [3] [µM] | AC50 [4] [µM] | AC50 [5] [µM] | AC50 [6] [µM] | AC50 [7] [µM] | AC50 [8] [µM] | AC50 [9] [µM] | AC50 [10] [µM] | AC50 [11] [µM] | AC50 [12] [µM] | AC50 [13] [µM] | AC50 [14] [µM] |
| --- | --- | --- | --- | --- | --- | --- | --- | --- | --- | --- | --- | --- | --- | --- |
| Oc1cc(O)c(Cl)cn1 | > 30 | > 30 | > 30 | > 30 | > 30 | > 30 | > 30 | > 30 |  |  |  |  |  |  |
| COc1cc(C)c(/C=C/C(C)=C/C=C/C(C)=C/C(=O)O)c(C)c1C [ACITRETIN] | > 10 |  | > 10 | > 30 | > 10 | > 10 | > 10 | > 30 | > 10 | > 30 | > 10 | > 10 |  |  |
| O=C(O)c1ccc(NC(=O)[C@H](Cc2ccc(O)cc2)NC(=O)c2ccccc2)cc1 [BENTIROMIDE] | > 10 |  | > 10 |  | > 10 | > 10 | > 10 |  | > 10 | > 30 | > 10 | > 10 | > 10 |  |
| Clc1ccc(CCC(Cn2ccnc2)Sc2c(Cl)cccc2Cl)cc1 (stereo unspecified) [BUTOCONAZOLE] | > 30 | > 30 | > 30 |  | 19 | > 30 | > 30 |  | > 30 |  |  |  |  |  |
| Oc1ccc(CCNCCCCCCNCCc2ccccc2)cc1O [DOPEXAMINE] | 15 | > 30 | 14 | > 30 | 19 | > 30 | > 30 | > 30 |  |  |  |  | > 30 |  |
| CCc1cc2c(s1)-n1c(C)nnc1CN=C2c1ccccc1Cl [ETIZOLAM] | > 30 | > 30 | > 30 | > 30 | > 30 | > 30 | > 30 | > 30 |  |  |  |  |  |  |
| CC/C=C\C/C=C\C/C=C\C/C=C\C/C=C\CCCC(=O)OCC [ICOSAPENT ETHYL] | > 30 | > 30 | > 30 | > 30 | > 30 | > 30 | > 30 | > 30 |  |  |  |  | > 30 |  |
| COc1ccc(CN2CCN(C(c3ccc(F)cc3)c3ccc(F)cc3)CC2)c(OC)c1OC [LOMERIZINE] | 4.5 | 3.3 | 0.94 | 23 | 19 | 21 | > 30 | > 30 |  | 9.7 |  |  |  |  |
| CC(=O)[C@H]1CC[C@H]2[C@@H]3C[C@H](C)C4=CC(=O)CC[C@]4(C)[C@H]3[C@@H](O)C[C@]12C [MEDRYSONE] | > 10 |  | > 10 | > 30 | > 10 | > 10 | > 10 | > 30 |  | > 30 | > 10 | > 10 | > 10 |  |
| O=C(c1cc(Cc2n[nH]c(=O)c3ccccc23)ccc1F)N1CCN(C(=O)C2CC2)CC1 [OLAPARIB] | > 10 |  | > 10 |  | > 10 | > 10 | > 10 |  | > 10 | > 30 | > 30 | > 10 |  |  |
| OC[C@H]1O[C@@H](Oc2cc(O)cc(/C=C/c3ccc(O)cc3)c2)[C@H](O)[C@@H](O)[C@@H]1O [PICEID] | > 30 | > 30 | > 30 | > 30 | > 30 | > 30 | > 30 | > 30 |  |  |  |  |  |  |
| O=C1CC[C@@H](C(=O)N2CSC[C@H]2C(=O)O)N1 [PIDOTIMOD] ([pGlu]-[Thz]-OH) | > 30 | > 30 | > 30 | > 30 | > 30 | > 30 | > 30 | > 30 |  |  |  |  |  |  |
| CCC(NC(C)C)C(O)c1ccc(O)c2[nH]c(=O)ccc12 (stereo unspecified) [PROCATEROL] | > 30 | > 30 | > 30 | > 30 | > 30 | > 30 | > 30 | > 30 |  |  |  |  |  |  |
| CCc1nc(N)nc(N)c1-c1ccc(Cl)cc1 [PYRIMETHAMINE] | > 30 | > 30 | > 30 | > 30 | > 10 |  |  | > 30 | > 10 | > 30 | > 10 | 4 | > 10 | > 30 |
| C=CC[N+]1([C@H]2C[C@H]3[C@@H]4CC[C@H]5C[C@H](O)[C@@H](N6CCOCC6)C[C@]5(C)[C@H]4CC[C@]3(C)[C@H]2OC(C)=O)CCCC1 [ROCURONIUM] | > 30 | > 30 | > 30 |  | > 30 | > 30 | > 30 |  | > 30 |  | > 30 |  | > 30 |  |
| CCCN1CCCC[C@H]1C(=O)Nc1c(C)cccc1C [ROPIVACAINE] | > 30 | > 30 | > 30 | > 30 | > 30 | > 30 | > 30 | > 30 |  |  |  |  |  |  |
| CCOC(=O)[C@@H](N)Cc1ccc(-c2cc(O[C@H](c3ccc(Cl)cc3-n3ccc(C)n3)C(F)(F)F)nc(N)n2)cc1 [TELOTRISTAT ETHYL] | > 30 |  | > 30 |  | 29 |  | > 30 | > 30 |  | > 30 |  |  |  | > 30 |
| Cn1c(=O)c2c(ncn2CCOC(=O)C(C)(C)Oc2ccc(Cl)cc2)n(C)c1=O [THEOFIBRATE] | > 30 | > 30 | > 30 | > 30 | > 30 | > 30 | > 30 | > 30 |  |  |  |  | > 30 |  |
| CC(C)(C)NCC(O)c1ccccc1Cl (stereo unspecified) [TULOBUTEROL] |  | > 30 | > 30 | > 30 | > 30 | > 30 | > 30 | > 30 |  |  |  |  | > 30 |  |
| CC(C(=O)O)c1ccc2c(c1)CC(=O)c1ccccc1S2 (stereo unspecified) [ZALTOPROFEN] | > 30 | > 30 | > 30 | > 30 | > 30 | > 30 | > 30 | > 30 |  |  |  |  |  |  |
